# Data as given in patent publication US20260242418A1, “CYCLIC PEPTIDES WITH ANTIBACTERIAL ACTIVITY AGAINST MULTIDRUG RESISTANT (MDR) PATHOGENS” (priority 2022, published 2026).
# Where two headings read alike, the source gives them in different places.
# Columns and labels:
# A. baumannii ATCC 19606 = test: Time-kill curves; type: cell-based, Acinetobacter baumannii
# Method: (§1) Time-kill curves (TKC) determine the in vitro antimicrobial activity of a compound, monitoring the bacterial growth over a certain period of time.
# (§2) This assay was performed for two Acinetobacter baumannii strains (a clinical strain and ATCC 19606 strain) and one Pseudomonas aeruginosa ATCC 27853 strain, monitoring its growth during 24 hours at different PLP-3 (SEQ ID NO: 4) concentrations: MIC, 2×MIC, 4×MIC, 8×MIC. Moreover, in each TKC assay a negative and a positive growth control was stablished.
# (§3) In different 13MI tubes, a certain concentration of PLP-3 peptide, Mueller-Hinton Broth (MHB, 1214, Condalab) and a fixed inoculum concentration were added. The final inoculum concentration in each tube was […]. Tubes were incubated at 37° C. at 180 rpm during 24 hours. Aliquots of the liquid culture were taken at different times: 0 h, 10 minutes, 30 minutes, 1 h, 2 h, 4 h, 8 h and 24 h. For each taken aliquot, serial dilutions with Phosphate Saline Buffer 1× (PBS 1×) were made and streaked in Luria-Bertani Agar (LB, 1083, Condalab). LB Agar plates were incubated at 37° C. during 18-22 hours. Grown colonies in LB Agar were counted in order to quantify the inoculum in each time period.
# (§4) Three biological replicates were performed for each strain, and the mean and standard deviation was determined each time.
# [1] = system: A. baumannii 8 clinical strain; test: Time-kill curves; type: cell-based, Acinetobacter baumannii
# Method: as §1, §2, §3, §4
# P. aeruginosa = type: cell-based; details: for Folds: with vs w/o albumin
# Method: (§5) To assess antimicrobial activity of PLP3 in a physiological relevant environment, MICs were performed at physiological human albumin concentrations. To this end, Mueller-Hinton broth (MHB) was supplemented with 40 mg/mL human albumin (A1653-5G, Merck) and broth microdilution protocol was used. SEQ ID NO: 4 (PLP-3) and colistin stocks were prepared both in MHB and albumin supplemented MHB. These were used for comparison of MICs in the presence or absence of albumin, and as a control.
# A. baumannii = type: cell-based; details: for Folds: with vs w/o albumin
# Method: as §5
# [2] = time-kill curves over 24 hours, MIC to 8xMIC
smiles,measurement,setting,value
"CC(C)C[C@@H]1NC(=O)[C@H](CCCNC(=N)N)NC(=O)[C@H](CCCNC(=N)N)NC(=O)[C@H](CCCNC(=N)N)NC(=O)[C@H]2CCCN2C(=O)[C@H](CCCNC(=N)N)NC(=O)[C@H](CCCNC(=N)N)NC(=O)[C@H](C(C)C)NC(=O)[C@@H]2CSSC[C@H](NC1=O)C(=O)N[C@@H](Cc1ccccc1)C(=O)N[C@@H](C(C)C)C(=O)N[C@@H](CCCNC(=N)N)C(=O)N1CCC[C@@H]1C(=O)N[C@@H](CCCCN)C(=O)N[C@@H](Cc1ccccc1)C(=O)N[C@@H](C(C)C)C(=O)N[C@@H](C(C)C)C(=O)N2 [PLP-3, cyclo[RRRLCFVRPKFVVCVRRP]]",log(CFU/mL) Mean,"A. baumannii ATCC 19606; 2xMIC (4 μg/mL), 0.00 h",5.87 log(CFU/mL)
same,log(CFU/mL) Mean,"A. baumannii ATCC 19606; 2xMIC (4 μg/mL), 0.17 h",5.54 log(CFU/mL)
same,log(CFU/mL) Mean,"A. baumannii ATCC 19606; 2xMIC (4 μg/mL), 0.50 h",4.91 log(CFU/mL)
same,log(CFU/mL) Mean,"A. baumannii ATCC 19606; 2xMIC (4 μg/mL), 1.00 h",3.14 log(CFU/mL)
same,log(CFU/mL) Mean,"A. baumannii ATCC 19606; 2xMIC (4 μg/mL), 2.00 h",2.18 log(CFU/mL)
same,log(CFU/mL) Mean,"A. baumannii ATCC 19606; 2xMIC (4 μg/mL), 4.00 h",2.58 log(CFU/mL)
same,log(CFU/mL) Mean,"A. baumannii ATCC 19606; 2xMIC (4 μg/mL), 8.00 h",2.56 log(CFU/mL)
same,log(CFU/mL) Mean,"A. baumannii ATCC 19606; 2xMIC (4 μg/mL), 24.00 h",3.30 log(CFU/mL)
same,log(CFU/mL) Mean,"A. baumannii ATCC 19606; 4xMIC (8 μg/mL), 0.00 h",5.87 log(CFU/mL)
same,log(CFU/mL) Mean,"A. baumannii ATCC 19606; 4xMIC (8 μg/mL), 0.17 h",5.12 log(CFU/mL)
same,log(CFU/mL) Mean,"A. baumannii ATCC 19606; 4xMIC (8 μg/mL), 0.50 h",3.79 log(CFU/mL)
same,log(CFU/mL) Mean,"A. baumannii ATCC 19606; 4xMIC (8 μg/mL), 1.00 h",0.94 log(CFU/mL)
same,log(CFU/mL) Mean,"A. baumannii ATCC 19606; 4xMIC (8 μg/mL), 2.00 h",0.00 log(CFU/mL)
same,log(CFU/mL) Mean,"A. baumannii ATCC 19606; 4xMIC (8 μg/mL), 4.00 h",0.00 log(CFU/mL)
same,log(CFU/mL) Mean,"A. baumannii ATCC 19606; 4xMIC (8 μg/mL), 8.00 h",0.00 log(CFU/mL)
same,log(CFU/mL) Mean,"A. baumannii ATCC 19606; 4xMIC (8 μg/mL), 24.00 h",0.00 log(CFU/mL)
same,log(CFU/mL) Mean,"A. baumannii ATCC 19606; 8xMIC (16 μg/mL), 0.00 h",5.87 log(CFU/mL)
same,log(CFU/mL) Mean,"A. baumannii ATCC 19606; 8xMIC (16 μg/mL), 0.17 h",3.41 log(CFU/mL)
same,log(CFU/mL) Mean,"A. baumannii ATCC 19606; 8xMIC (16 μg/mL), 0.50 h",0.87 log(CFU/mL)
same,log(CFU/mL) Mean,"A. baumannii ATCC 19606; 8xMIC (16 μg/mL), 1.00 h",0.00 log(CFU/mL)
same,log(CFU/mL) Mean,"A. baumannii ATCC 19606; 8xMIC (16 μg/mL), 2.00 h",0.00 log(CFU/mL)
same,log(CFU/mL) Mean,"A. baumannii ATCC 19606; 8xMIC (16 μg/mL), 4.00 h",0.00 log(CFU/mL)
same,log(CFU/mL) Mean,"A. baumannii ATCC 19606; 8xMIC (16 μg/mL), 8.00 h",0.00 log(CFU/mL)
same,log(CFU/mL) Mean,"A. baumannii ATCC 19606; 8xMIC (16 μg/mL), 24.00 h",0.00 log(CFU/mL)
same,log(CFU/mL) Mean,"A. baumannii ATCC 19606; MIC (2 μg/mL), 0.00 h",5.87 log(CFU/mL)
same,log(CFU/mL) Mean,"A. baumannii ATCC 19606; MIC (2 μg/mL), 0.17 h",5.85 log(CFU/mL)
same,log(CFU/mL) Mean,"A. baumannii ATCC 19606; MIC (2 μg/mL), 0.50 h",5.43 log(CFU/mL)
same,log(CFU/mL) Mean,"A. baumannii ATCC 19606; MIC (2 μg/mL), 1.00 h",4.01 log(CFU/mL)
same,log(CFU/mL) Mean,"A. baumannii ATCC 19606; MIC (2 μg/mL), 2.00 h",2.39 log(CFU/mL)
same,log(CFU/mL) Mean,"A. baumannii ATCC 19606; MIC (2 μg/mL), 4.00 h",3.05 log(CFU/mL)
same,log(CFU/mL) Mean,"A. baumannii ATCC 19606; MIC (2 μg/mL), 8.00 h",3.85 log(CFU/mL)
same,log(CFU/mL) Mean,"A. baumannii ATCC 19606; MIC (2 μg/mL), 24.00 h",5.17 log(CFU/mL)
same,bactericidal or bacteriostatic activity,A. baumannii ATCC 19606; [2],bactericidal effect
same,log(CFU/mL) Mean,"[1]; 2xMIC (4 μg/mL), 0.00 h",5.60 log(CFU/mL)
same,log(CFU/mL) Mean,"[1]; 2xMIC (4 μg/mL), 0.17 h",5.56 log(CFU/mL)
same,log(CFU/mL) Mean,"[1]; 2xMIC (4 μg/mL), 0.50 h",4.92 log(CFU/mL)
same,log(CFU/mL) Mean,"[1]; 2xMIC (4 μg/mL), 1.00 h",4.20 log(CFU/mL)
same,log(CFU/mL) Mean,"[1]; 2xMIC (4 μg/mL), 2.00 h",2.74 log(CFU/mL)
same,log(CFU/mL) Mean,"[1]; 2xMIC (4 μg/mL), 4.00 h",1.89 log(CFU/mL)
same,log(CFU/mL) Mean,"[1]; 2xMIC (4 μg/mL), 8.00 h",1.05 log(CFU/mL)
same,log(CFU/mL) Mean,"[1]; 2xMIC (4 μg/mL), 24.00 h",1.49 log(CFU/mL)
same,log(CFU/mL) Mean,"[1]; 4xMIC (8 μg/mL), 0.00 h",5.60 log(CFU/mL)
same,log(CFU/mL) Mean,"[1]; 4xMIC (8 μg/mL), 0.17 h",5.30 log(CFU/mL)
same,log(CFU/mL) Mean,"[1]; 4xMIC (8 μg/mL), 0.50 h",4.11 log(CFU/mL)
same,log(CFU/mL) Mean,"[1]; 4xMIC (8 μg/mL), 1.00 h",2.74 log(CFU/mL)
same,log(CFU/mL) Mean,"[1]; 4xMIC (8 μg/mL), 2.00 h",0.00 log(CFU/mL)
same,log(CFU/mL) Mean,"[1]; 4xMIC (8 μg/mL), 4.00 h",0.00 log(CFU/mL)
same,log(CFU/mL) Mean,"[1]; 4xMIC (8 μg/mL), 8.00 h",0.00 log(CFU/mL)
same,log(CFU/mL) Mean,"[1]; 4xMIC (8 μg/mL), 24.00 h",0.00 log(CFU/mL)
same,log(CFU/mL) Mean,"[1]; 8xMIC (16 μg/mL), 0.00 h",5.60 log(CFU/mL)
same,log(CFU/mL) Mean,"[1]; 8xMIC (16 μg/mL), 0.17 h",4.45 log(CFU/mL)
same,log(CFU/mL) Mean,"[1]; 8xMIC (16 μg/mL), 0.50 h",0.00 log(CFU/mL)
same,log(CFU/mL) Mean,"[1]; 8xMIC (16 μg/mL), 1.00 h",0.00 log(CFU/mL)
same,log(CFU/mL) Mean,"[1]; 8xMIC (16 μg/mL), 2.00 h",0.00 log(CFU/mL)
same,log(CFU/mL) Mean,"[1]; 8xMIC (16 μg/mL), 4.00 h",0.00 log(CFU/mL)
same,log(CFU/mL) Mean,"[1]; 8xMIC (16 μg/mL), 8.00 h",0.00 log(CFU/mL)
same,log(CFU/mL) Mean,"[1]; 8xMIC (16 μg/mL), 24.00 h",0.00 log(CFU/mL)
same,log(CFU/mL) Mean,"[1]; MIC (2 μg/mL), 0.00 h",5.60 log(CFU/mL)
same,log(CFU/mL) Mean,"[1]; MIC (2 μg/mL), 0.17 h",5.63 log(CFU/mL)
same,log(CFU/mL) Mean,"[1]; MIC (2 μg/mL), 0.50 h",5.18 log(CFU/mL)
same,log(CFU/mL) Mean,"[1]; MIC (2 μg/mL), 1.00 h",4.55 log(CFU/mL)
same,log(CFU/mL) Mean,"[1]; MIC (2 μg/mL), 2.00 h",3.56 log(CFU/mL)
same,log(CFU/mL) Mean,"[1]; MIC (2 μg/mL), 4.00 h",2.54 log(CFU/mL)
same,log(CFU/mL) Mean,"[1]; MIC (2 μg/mL), 8.00 h",2.90 log(CFU/mL)
same,log(CFU/mL) Mean,"[1]; MIC (2 μg/mL), 24.00 h",4.67 log(CFU/mL)
same,bactericidal or bacteriostatic activity,[1]; [2],bactericidal effect
same,MIC With Albumin 40 mg/mL,P. aeruginosa; strain ATCC 27853,8 µg/mL
same,MIC w/o Albumin,P. aeruginosa; strain ATCC 27853,2 µg/mL
same,Folds,P. aeruginosa; strain ATCC 27853,2
same,MIC With Albumin 40 mg/mL,P. aeruginosa; strain R2,32 µg/mL
same,MIC w/o Albumin,P. aeruginosa; strain R2,4 µg/mL
same,Folds,P. aeruginosa; strain R2,3
same,MIC With Albumin 40 mg/mL,A. baumannii; strain ATCC 17978,4 µg/mL
same,MIC w/o Albumin,A. baumannii; strain ATCC 17978,1 µg/mL
same,Folds,A. baumannii; strain ATCC 17978,2
same,MIC With Albumin 40 mg/mL,A. baumannii; strain CR17,2 µg/mL
same,MIC w/o Albumin,A. baumannii; strain CR17,1 µg/mL
same,Folds,A. baumannii; strain CR17,1
